Reference: patent publication US20090209426A1, “HERBICIDAL MIXTURE” (priority 2006, published 2009)

Tested on: Digitaria nuda
Test: Test A: greenhouse postemergence herbicidal effect on Digitaria nuda, visual rating 21 DAT
Assay type: in vivo
Description: Square plastic pots (10 cm on each side) were filled to the rim with a Redi-earth® (Sun Gro Horticulture, Bellevue, Wash.) planting medium containing 55-65% of Canadian sphagnum peat moss, horticultural grade vermiculite, dolomitic limestone and a wetting agent. The soil was tamped firm to a uniform level of 2.5 cm below the rim of the pot. A measured amount of Digitaria nuda seed was scattered on the soil surface of each pot. Seeded pots were covered with approximately 50 mL of the same planting media, tamped, and set out on a greenhouse bench.
The pots were watered thoroughly at once and then as needed with a dilute balanced N—P—K fertilizer solution to provide 218 ppm nitrogen. Artificial lighting was used to supplement natural light to produce a 14-hour photoperiod. Greenhouse temperatures were targeted for 27° C. during the daytime and 21° C. at night. Once the plants reached their appropriate growth stage, the plants were sorted into test units prior to the herbicide application. Digitaria nuda was 5 to 7 cm in height and at the 3-leaf stage at the time of application.
Test chemicals included diuron in the form of KARMEX® Herbicide, which is a 80 weight (wt.) % wettable granule formulation, a mixture of diuron with hexazinone in the form of DUPONT™ K4™ Herbicide, which a granule formulation containing 468 g of diuron and 132 g of hexazinone per kg of formulation, another mixture of diuron with hexazinone in the form of ADVANCE™ Herbicide, which is a wettable granule formulation containing 533 g of diuron and 67 g of hexazinone per kg of formulation, and mesotrione in the form of the commercial product CALLISTO® Herbicide, which is a 40 weight-volume (wt.-vol.) % suspension concentrate containing 400 g of mesotrione per liter of formulation. The application rates for this test were selected based on the recommended use rate of each compound. Application rates of diuron were 1800 g a.i./ha alone from KARMEX® Herbicide, 936 g a.i./ha from DUPONT™ K4™ Herbicide in combination with 264 g a.i./ha of hexazinone, and 1599 g a.i./ha from ADVANCE™ Herbicide in combination with 201 g a.i./ha of hexazinone. […] Furthermore diuron was tested alone and together with hexazinone in combination with mesotrione at these application rates.
The herbicides were diluted in a measured amount of carrier solution to make stock solutions. The carrier solution was water containing 0.25% v/v of non-ionic adjuvant X-77. The stock solutions were all mixed for 10 minutes before aliquots were taken to make individual treatment solutions. Vials were then brought up to final spray volume of 24 mL. The treatments were sprayed at a pressure of 276 kPa through a T-Jet 8002E (Spraying Systems Co., Wheaton, Ill.) flat fan nozzle onto the surface of the plants in a stationary belt sprayer system calibrated to deliver 280 L/Ha. Treatments were replicated three times.
The sprayed plants were placed in the greenhouse for observation; height and leaf stages were then recorded. Plants were maintained by watering as needed and in the same manner in which they were propagated with respect to nutrition, light, and day length. Visual evaluations were made 21 days after treatment (DAT). A numerical rating system was used to describe the visual response of each treatment on a scale of 0 to 100. Numerical ratings were expressed as the percent effect as compared to the control plants, calculated as the mean of the three replicates. Zero (0%) indicates no visual response, and 100% indicates plant death or a moribund state expected to rapidly end in death.
Colby's equation was used to calculate the expected additive herbicidal effect of the mixtures of mesotrione with diuron, alone and in combination with hexazinone. Colby's equation (S. R. Colby, “Calculating Synergistic and Antagonistic Responses of Herbicide Combinations,” Weeds, 15(1), pp 20-22 (1967)) calculates the expected additive effect of herbicidal mixtures, and for two active ingredients is of the form: […]

Row | SMILES | Herbicidal Effect Observed (mesotrione 5 g a.i./ha alone (CALLISTO)) [%] | Herbicidal Effect Observed (mesotrione 10 g a.i./ha alone) [%] | Herbicidal Effect Observed (mesotrione 20 g a.i./ha alone) [%] | Herbicidal Effect Observed (mesotrione 30 g a.i./ha alone) [%] | Herbicidal Effect Observed (mesotrione 40 g a.i./ha alone) [%] | Herbicidal Effect Observed (mesotrione 60 g a.i./ha alone) [%] | Herbicidal Effect Observed (mesotrione 90 g a.i./ha alone) [%] | Herbicidal Effect Observed (diuron 1800, hexazinone 0, mesotrione 0 g a.i./ha (KARMEX), mean of 3 replicates) [%]
1 | CS(=O)(=O)c1ccc(C(=O)C2C(=O)CCCC2=O)c([N+](=O)[O-])c1 [Mesotrione, 2-[4-(methylsulfonyl)-2-nitrobenzoyl]-1,3-cyclohexanedione] | 3 | 17 | 33 | 50 | 53 | 73 | 88 | 
2 | CN(C)C(=O)Nc1ccc(Cl)c(Cl)c1 [Diuron, N′-(3,4-dichlorophenyl)-N,N-dimethylurea] |  |  |  |  |  |  |  | 20
